Where a name gives a salt, the structure may show the parent alone.
Row | Structure (SMILES) | melting point
1 | Nc1ccc(CC(=O)N2CCC(c3[nH]nc4c3C(=O)c3c(NC(=O)NN5CCOCC5)cccc3-4)CC2)cc1 (as salt: TFA) [Example CCXCIV, 3-(1-(4-aminobenzylcarbonyl)piperidin-4-yl)-5-(morpholinocarbamoylamino)indeno[1,2-c]pyrazol-4-one] | 177 °C
2 | CN1CCC(C(=O)N2CCC(c3[nH]nc4c3C(=O)c3c(NC(=O)NN5CCOCC5)cccc3-4)CC2)CC1 (as salt: TFA) [Example CCLXXX, 3-(1-((1-methylpiperidin-4-yl)carbonyl)piperidin-4-yl)-5-(morpholinocarbamoylamino)indeno[1,2-c]pyrazol-4-one] | 148 °C
3 | CN1CCC(CNC(=O)c2ccc(-c3[nH]nc4c3C(=O)c3c(NC(=O)NN5CCOCC5)cccc3-4)s2)C1 (centres unmarked) (as salt: TFA) [Example CLXXXIII, 3-(5-((1-methylpyrrolidin-3-yl)methylaminocarbonyl)-2-thienyl)-5-(morpholinocarbamoylamino)indeno[1,2-c]pyrazol-4-one] | 151 °C
4 | CC(=O)Nc1ccc(NC(=O)c2ccc(-c3[nH]nc4c3C(=O)c3c(NC(=O)NN5CCOCC5)cccc3-4)s2)cc1 (as salt: TFA) [Example CXCVII, 3-(5-((4-acetamidophenyl)aminocarbonyl)-2-thienyl)-5-(morpholinocarbamoylamino)indeno[1,2-c]pyrazol-4-one] | 253 °C
5 | CO[C@H]1CC[C@@H](C(=O)N2CCC(c3[nH]nc4c3C(=O)c3c(NC(=O)NN5CCOCC5)cccc3-4)CC2)CC1 (as salt: TFA) [Example CCXCIII, 3-(1-(cis-4-methoxycyclohexylcarbonyl)piperidin-4-yl)-5-(morpholinocarbamoylamino)indeno[1,2-c]pyrazol-4-one] | 178 °C
6 | CN(C)C1CCN(C(=O)[C@H]2CC[C@H](c3[nH]nc4c3C(=O)c3c(NC(=O)NN5CCOCC5)cccc3-4)CC2)C1 (stereo partly drawn) (as salt: TFA) [Example CCCII, 3-(trans-4-(3-(dimethylamino)pyrrolidinocarbonyl)cyclohexyl)-5-(morpholinocarbamoylamino)indeno[1,2-c]pyrazol-4-one] | 191 °C
7 | O=C(Nc1cccc2c1C(=O)c1c-2n[nH]c1C1CCN(C(=O)Oc2ccccc2)CC1)NN1CCOCC1 (as salt: TFA) | 250 °C

Continued, values first:

Row | melting point | Structure (SMILES)
8 | > 300 °C | Cn1ccc(-c2[nH]nc3c2C(=O)c2c(NC(N)=O)cccc2-3)c1 [Example CXII, 3-(1-methyl-3-pyrrolyl)-5-(carbamoylamino)indeno[1,2-c]pyrazol-4-one]
9 | 291 °C | COc1ccc(-c2[nH]nc3c2C(=O)c2c(NC(=O)CN4CCCCC4)cccc2-3)cc1 [Example XXIX, 3-(4-methoxyphenyl)-5-(piperidinoacetamido)indeno[1,2-c]pyrazol-4-one]
10 | > 300 °C | CN(C)c1ccc(-c2[nH]nc3c2C(=O)c2c(NC(=O)CN4CCOCC4)cccc2-3)cc1 [Example LV, 3-(4-(N,N-dimethylamino)phenyl)-5-(morpholinoacetamido)indeno[1,2-c]pyrazol-4-one]
11 | 254 °C | CN1CCN(NC(=O)Nc2cccc3c2C(=O)c2c-3n[nH]c2-c2ccc(N3CCNCC3)cc2)CC1 (as salt: TFA) [Example CCXXIII, 3-(4-piperazinophenyl)-5-((4-methylpiperazino)carbamoylamino)indeno[1,2-c]pyrazol-4-one]

From US6407103B2, “Indeno [1,2-c] pyrazol-4-ones and their uses” (Bristol-Myers Squibb Pharma Company, priority 1998, dated 2002)
